Results reported in US20220016092A1, “METHODS FOR TREATING SYMPTOMS AND DISORDERS ASSOCIATED WITH LYSOSOMAL STORAGE DISEASES” (GENZYME CORPORATION, priority 2019, published 2022).
Where “and” joins values, the source holds several entries; their conditions need not be identical. Equal entries are not always repeated. Where two headings read alike, the source gives them in different places.

What was measured:
Format in all cases: in vivo, human
[1] = system: adult patients with Gaucher disease Type 3; experiment: Clinical study in GD-3 patients: markers for systemic disease (platelets, spleen volume, hemoglobin); conditions: 15 mg/day + imiglucerase
Experimental: (§1) During the study patients were evaluated for safety and tolerability, CSF and plasma biomarkers (glucosylceramide, GL-1; glucosylsphingosine, lyso-GL1), pharmacokinetics, markers for systemic disease (spleen and liver volume measured by magnetic resonance imaging (MRI), platelet count, hemoglobin levels), indicia of interstitial lung disease (high resolution pulmonary computed tomography (CT)), and horizontal saccadic eye movement.
Individual patient data for platelet counts are shown in the table below (shown as 10^9 platelets/L): […]

[2] = Study 1 Part 1: ascending single-dose pharmacokinetics in healthy volunteers; conditions: healthy men; for Tmax: male, human, plasma, read-out: tmax, median
Source text: Study 1 was a 2-part single-center trial in healthy adult male volunteers.
Part 1 of the study enrolled and randomized 55 healthy men (placebo, n=14; 2-, 5-, 15, 25-, 50, and 100-mg doses, n=6 each; 150-mg dose, n=5). Eight healthy men participated in Part 2. […]

[3] = system: plasma GL-1, GL-3, and GM3; experiment: Study 2: pharmacodynamics in healthy volunteers; conditions: healthy adults; all dose groups (5, 10, 20 mg)
Experimental: The study enrolled and randomized 36 healthy adults (19 men and 17 women) (n=9 each to group).
Pharmacodynamic endpoints (plasma GL-1, GL-3, and GM3 concentrations) were assessed on Days 1-5, 8, 11, 13, and 14, at 0 hours […]; and on Day 15, at 24 hours after the Day 14 dose.

[4] = system: adult patients with Gaucher disease Type 3; experiment: Clinical study in GD-3 patients: horizontal and vertical saccadic eye movements; conditions: 15 mg/day + imiglucerase
Experimental: as §1
Quantification of horizontal and vertical saccadic eye movements (HSEM and VSEM, respectively) was performed in all 5 patients. In the five patients, mean peak velocity (PV) of horizontal rightward 15° saccades was 50.8°/s (+/−8.1°/s) at baseline and […] (+/−12.6°/s) at Week 26; and the mean PV of horizontal leftward 15° saccades was 44.7° /s (+/−17.9°/s) at baseline and 32.3°/s (+/−15.9°/s) at Week 26. A slower velocity implies a more significant degree of neurological impairment. The mean PV of horizontal rightward 30° saccades was 77.7°/s (+/−16.4°/s) at baseline and […] (+/−24.7°/s) at Week 26; and the mean PV of horizontal leftward 30° saccades was 58.7°/s (+/−21.5°/s) at baseline and 49.9°/s (+/−8.5°/s) at Week 26. The normal range for […] horizontal saccades has previously been reported as >200°/s and >400°/s (Bremova-Ertl et al, 2018). […] As with HSEM, VSEM measurements were stable between baseline and week 26.
At 52 weeks, quantification of horizontal and vertical saccadic eye movements was performed in all six patients in a similar manner as described in section (A). However, it was determined that the methodology used to account for noise (e.g., caused by blinking or head movements) may have introduced bias into the results. The method of accounting for noise was therefore modified, and a set of control criteria were developed to assess validity of the datasets obtained by the eye movement reader.

[5] = Study 2: ascending repeated-dose pharmacokinetics in healthy volunteers; conditions: both sexes, human, plasma, oral, 5 mg, healthy adults, 5 mg once daily, Day 1 (N = 9)
[6] = single oral dose 2 mg, fasted (N = 6)
[7] = single oral dose 5 mg, fasted (N = 6)
[8] = single oral dose 15 mg, fasted (N = 6)
[9] = single oral dose 25 mg, fasted (N = 6)
[10] = single oral dose 50 mg, fasted (N = 6)
[11] = single oral dose 100 mg, fasted (N = 6)
[12] = single oral dose 150 mg, fasted (N = 5)

CC(C)(NC(=O)O[C@@H]1CN2CCC1CC2)c1csc(-c2ccc(F)cc2)n1 [Compound 2, (S)-quinuclidin-3-yl 2-(2-(4-fluorophenyl)thiazol-4-yl)propan-2-ylcarbamate]
Hemoglobin levels ([1]; 26 weeks): no clinically meaningful changes in hemoglobin levels | Platelet count increase in the three patients with lowest baseline platelet counts ([1]; 26 weeks): 23-42% | Patients with reductions in splenic volume of 10% or more ([1]; 26 weeks (5 patients)): Two | Systemic deterioration ([1]; 26 weeks, all patients): absence of systemic deterioration | Platelet count ([1]; Week 4, individual Patients 1-5): 203 10^9 platelets/L and 243 10^9 platelets/L and 247 10^9 platelets/L and 239 10^9 platelets/L and 154 10^9 platelets/L | Platelet count ([1]; Week 12, individual Patients 1-5): 214 10^9 platelets/L and 294 10^9 platelets/L and 264 10^9 platelets/L and 314 10^9 platelets/L and 180 10^9 platelets/L | Platelet count ([1]; Week 26, individual Patients 1-5): 264 10^9 platelets/L and 236 10^9 platelets/L and 248 10^9 platelets/L and 267 10^9 platelets/L and 173 10^9 platelets/L | Hemoglobin levels ([1]; Week 52): no clinically meaningful changes in hemoglobin levels | Platelet count maintained by all patients ([1]; Week 52): greater than 120 ×10^9/L | Patients with spleen volume reductions ([1]; Week 52 (six patients)): two | Mean platelet concentration increase ([1]; Week 52, range −8.2% to +45.3%): 9.3% | Platelet count, % Change from baseline to 26 weeks ([1]; individual Patients 1-5): +42% and +23% and −4.3% and −13% and +36% | Platelet counts, average rise from baseline ([1]; week 26): 17% | CL/F, Geometric mean [2, 6]: 6.3 L/h | CL/F, Mean [2, 6]: 6.43 L/h | CL/F, Geometric mean [2, 7]: 5.8 L/h | CL/F, Mean [2, 7]: 5.86 L/h | CL/F, Geometric mean [2, 8]: 5.6 L/h | CL/F, Mean [2, 8]: 5.85 L/h | Cmax, Geometric mean [2, 8]: 50.7 ng/mL | CL/F, Geometric mean [2, 9]: 5.0 L/h | CL/F, Mean [2, 9]: 5.18 L/h | CL/F, Geometric mean [2, 10]: 5.5 L/h | CL/F, Mean [2, 10]: 5.75 L/h | CL/F, Geometric mean [2, 11]: 5.3 L/h | CL/F, Mean [2, 11]: 5.38 L/h | CL/F, Geometric mean [2, 12]: 5.6 L/h | CL/F, Mean [2, 12]: 5.80 L/h | Tmax [2, 9]: 5 h | Tmax [2, 11]: 3 h | Plasma GL-3 over time [3]: decreased with time | Changes in HSEM ([4]; 26-week treatment period): no clinically meaningful changes in HSEM | Mean peak velocity of horizontal leftward 15° saccades ([4]; Week 26, five patients): 32.3 °/s | Mean peak velocity of horizontal leftward 30° saccades ([4]; Week 26, five patients): 49.9 °/s | VSEM measurements ([4]; between baseline and week 26): stable | AUC(0-t) ([5]; read-out: AUC0-24, Geometric mean (CV)): 292 ng·h/mL | AUC(0-t) ([5]; read-out: AUC0-24, Mean (SD)): 296 ng·h/mL | Cmax ([5]; read-out: Cmax, Geometric mean (CV)): 18.2 ng/mL | Cmax ([5]; read-out: Cmax, Mean (SD)): 18.5 ng/mL | Tmax ([5]; read-out: tmax, median (range)): 5 h
